Experimental data reported in ChEMBL document CHEMBL3286303, “Synthesis and in vitro antiproliferative evaluation of novel N-alkylated 6-isobutyl- and propyl pyrimidine derivatives” (Bioorg Med Chem Lett, 2014).

Key:
[1] = Antiproliferative activity against human MIAPaCa2 cells after 72 hrs by MTT assay; format: functional, cell-based; conditions: MIA PaCa-2, 72 h
HepG2 = experiment: Antiproliferative activity against human HepG2 cells after 72 hrs by MTT assay; format: functional, cell-based; conditions: HepG2, 72 h
MCR [2] = experiment: Antiproliferative activity against human MCR cells after 72 hrs by MTT assay
MCF7 = experiment: Antiproliferative activity against human MCF7 cells after 72 hrs by MTT assay; format: functional, cell-based; conditions: MCF7, 72 h
SW-620 = experiment: Antiproliferative activity against human SW620 cells after 72 hrs by MTT assay; format: functional, cell-based; conditions: SW-620, 72 h
HeLa = experiment: Antiproliferative activity against human HeLa cells after 72 hrs by MTT assay; format: functional, cell-based
WI-38 = experiment: Antiproliferative activity against human WI38 cells after 72 hrs by MTT assay; format: cell-based; conditions: Homo sapiens, WI-38, 72 h
MCR [3] = experiment: Antiproliferative activity against human MCR cells after 72 hrs by MTT assay; format: cell-based; conditions: MCR
BJ = experiment: Antiproliferative activity against human BJ cells after 72 hrs by PrestoBlue colorimetric assay; format: cell-based
K562 = experiment: Antiproliferative activity against apoptosis-resistant, Philadelphia chromosome-positive human K562 cells after 72 hrs by PrestoBlue colorimetric assay; format: functional, cell-based; conditions: K562, 72 h

| Structure (SMILES) | IC50 [1] [µM] | IC50 (HepG2) [µM] | IC50 (MCR [2]) [µM] | IC50 (MCF7) [µM] | IC50 (SW-620) [µM] | IC50 (HeLa) [µM] | IC50 (WI-38) [µM] | IC50 (MCR [3]) [µM] | IC50 (BJ) [µM] | IC50 (K562) [µM] |
| --- | --- | --- | --- | --- | --- | --- | --- | --- | --- | --- |
| COc1nc(CC(O)(COCc2ccccc2)COCc2ccccc2)c(C)c(OC)n1 | 6.1 |  |  |  |  |  |  |  |  |  |
| COCn1c(CC(O)(COCc2ccccc2)COCc2ccccc2)cc(=O)[nH]c1=O | > 100 | > 100 | > 100 | > 100 | > 100 | > 100 |  |  |  |  |
| C[Si](C)(C)CCOCn1c(CC(O)CO)cc(=O)[nH]c1=O (stereo unspecified) | > 100 | > 100 | > 100 | > 100 | > 100 | > 100 |  |  |  |  |
| C[Si](C)(C)CCOCn1c(CC(O)(COCc2ccccc2)COCc2ccccc2)cc(=O)[nH]c1=O | > 100 | > 100 | > 100 | > 100 | > 100 | > 100 |  |  |  |  |
| COCn1c(CC(COCc2ccccc2)COCc2ccccc2)c(C)c(=O)[nH]c1=O | 55.9 |  |  | 72.6 | 72.1 | 29.7 | 30.8 |  |  |  |
| COCn1c(CC(COCc2ccccc2)COCc2ccccc2)cc(=O)[nH]c1=O | > 100 | > 100 | > 100 | > 100 | > 100 | > 100 |  |  |  |  |
| Cc1c(CC(O)CO)n(COCC[Si](C)(C)C)c(=O)[nH]c1=O (stereo unspecified) | > 100 | > 100 | > 100 | > 100 | > 100 | > 100 |  |  |  |  |
| O=c1cc(CC(O)(COCc2ccccc2)COCc2ccccc2)[nH]c(=O)[nH]1 | > 100 | > 100 | > 100 | > 100 | > 100 | > 100 |  |  |  |  |
| COc1nc(CC(O)COCc2ccccc2)c(C)c(OC)n1 (stereo unspecified) | > 100 | > 100 |  | > 100 | > 100 | > 100 |  | > 100 |  |  |
| Cc1c(CC(O)COCc2ccccc2)[nH]c(=O)[nH]c1=O (stereo unspecified) | > 100 | > 100 | > 100 | > 100 | > 100 | > 100 |  |  |  |  |
| C[Si](C)(C)CCOCn1c(CC(O)(CO)CO)cc(=O)[nH]c1=O | > 100 | > 100 | > 100 | > 100 | > 100 | > 100 |  |  |  |  |
| Cc1c(CC(O)COCc2ccccc2)n(COCC[Si](C)(C)C)c(=O)[nH]c1=O (stereo unspecified) | > 100 | > 100 | > 100 | > 100 | > 100 | > 100 |  |  |  |  |
| COc1cc(CC(O)(COCc2ccccc2)COCc2ccccc2)nc(OC)n1 | > 100 | > 100 | > 100 | > 100 | > 100 | > 100 |  |  |  |  |
| COc1cc(CC(COCc2ccccc2)COCc2ccccc2)nc(OC)n1 |  | 0.3 | 18.5 | 0.3 | > 100 | 3.5 |  |  |  |  |
| COCn1c(CC(O)CO)c(C)c(=O)[nH]c1=O (stereo unspecified) | > 100 | > 100 | > 100 | > 100 | > 100 | > 100 |  |  |  |  |
| O=c1cc(CC(COCc2ccccc2)COCc2ccccc2)[nH]c(=O)[nH]1 | > 100 | > 100 | > 100 | > 100 | > 100 | > 100 |  |  |  |  |
| COc1cc(CC(O)COCc2ccccc2)nc(OC)n1 (stereo unspecified) | > 100 | > 100 | > 100 | > 100 | > 100 | > 100 |  |  |  |  |
| COCn1c(=O)[nH]c(CC(COCc2ccccc2)COCc2ccccc2)c(C)c1=O | 27.3 |  |  | 21.6 | 25.6 | 17 | 19.4 |  |  |  |
| Cc1cn(-c2cc(NC(=O)c3ccc(C)c(Nc4nccc(-c5cccnc5)n4)c3)cc(C(F)(F)F)c2)cn1 [NILOTINIB] |  |  |  |  |  |  |  |  | 12.8 | 2.4 |
| C[Si](C)(C)CCOCn1c(CC(O)COCc2ccccc2)cc(=O)[nH]c1=O (stereo unspecified) | > 100 | > 100 | > 100 | > 100 | > 100 | > 100 |  |  |  |  |
| COCn1c(CC(O)COCc2ccccc2)c(C)c(=O)[nH]c1=O (stereo unspecified) | > 100 | > 100 | > 100 | > 100 | > 100 | > 100 |  |  |  |  |
| COCn1c(CC(O)(CO)CO)cc(=O)[nH]c1=O | > 100 | > 100 | > 100 | > 100 | > 100 | > 100 |  |  |  |  |
| O=c1cc(CC(O)COCc2ccccc2)[nH]c(=O)[nH]1 (stereo unspecified) | > 100 | > 100 | > 100 | > 100 | > 100 | > 100 |  |  |  |  |
